Assay results reported in ChEMBL document CHEMBL1201862, “PubChem BioAssay data set” (2004).
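The compound was tested at five concentrations on cells cultured in 96-well plates, with a 48-hour exposure period. Abbreviation: GI50, concentration required for 50% inhibition of growth.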 Active and inactive are the calls of the source. Cut-off read from the data, not from the text of the source: active = GI50 up to about 1.1 µM and inactive = higher.

How the values were obtained:
Experiment in all cases: inhibition of tumour cell growth, NCI panel, 48 h
HOP-62 = test system: HOP-62
Malme-3M = test system: Malme-3M
RPMI-8226 = test system: RPMI-8226
LOX IMVI = test system: LOX IMVI
NCI-H460 = test system: NCI-H460
HT-29 = test system: HT-29
M19-MEL = test system: M19-MEL
SK-MEL-28 = test system: SK-MEL-28
IGROV-1 = test system: IGROV-1
MOLT-4 = test system: MOLT-4
HCT-116 = test system: HCT-116
RXF 393 = test system: RXF 393
HCT-15 = test system: HCT-15
NCI-H226 = test system: NCI-H226
KM12 = test system: KM12
NCI-H522 = test system: NCI-H522
SK-MEL-5 = test system: SK-MEL-5
OVCAR-4 = test system: OVCAR-4

Compound | GI50 (HOP-62) | GI50 (Malme-3M) | GI50 (RPMI-8226) | GI50 (LOX IMVI) | GI50 (NCI-H460) | GI50 (HT-29) | GI50 (M19-MEL) | GI50 (SK-MEL-28) | GI50 (IGROV-1) | GI50 (MOLT-4) | GI50 (HCT-116) | GI50 (RXF 393) | GI50 (HCT-15) [µM] | GI50 (NCI-H226) | GI50 (KM12) | GI50 (NCI-H522) | GI50 (SK-MEL-5) | GI50 (OVCAR-4)
CCOC(=O)Cn1c2ccccc2c(=O)c2cc(C)c(C)c(C#N)c21 | 40.7 µM (inactive) | > 100 µM (inactive) | > 100 µM (inactive) | > 100 µM (inactive) | > 100 µM (inactive) | > 100 µM (inactive) | > 100 µM (inactive) | > 100 µM (inactive) | > 100 µM (inactive) | > 100 µM (inactive) | 53.5 µM (inactive) | 63.7 µM (inactive) | > 100 | > 100 µM (inactive) |  |  |  | 
O=c1/c(=C/c2ccccc2[N+](=O)[O-])sc2nc3ccccc3n12 | 42.4 µM (inactive) | 42.2 µM (inactive) | 12.6 µM (inactive) | 17.1 µM (inactive) | 37.8 µM (inactive) | > 46.5 µM (inactive) | 28.6 µM (inactive) | > 46.5 µM (inactive) | 30.5 µM (inactive) | > 46.1 µM (inactive) | 21.7 µM (inactive) | 28.3 µM (inactive) | 17 | 22.9 µM (inactive) | 34.7 µM (inactive) | 35.4 µM (inactive) | 41.6 µM (inactive) | > 46.5 µM (inactive)
Clc1cc(Cl)c2c(Cl)cc(Cl)c3c2c1N=S=N3 |  | > 100 µM (inactive) | > 100 µM (inactive) | > 100 µM (inactive) |  | > 100 µM (inactive) | > 100 µM (inactive) | > 100 µM (inactive) | > 100 µM (inactive) | 2.86 µM (inactive) | > 100 µM (inactive) | > 100 µM (inactive) | 67.1 | > 100 µM (inactive) | > 100 µM (inactive) | > 100 µM (inactive) | > 100 µM (inactive) | > 100 µM (inactive)
Cc1cc2c(cc1C)[n+]([O-])c(C(=O)C/C(=N/NC(=O)c1ccccc1O)C(=O)Nc1ccccc1C(C)C)c(C)[n+]2[O-] | > 100 µM (inactive) | > 100 µM (inactive) |  | 87.3 µM (inactive) | 61.8 µM (inactive) | > 100 µM (inactive) | > 100 µM (inactive) | > 100 µM (inactive) | > 100 µM (inactive) | 21.9 µM (inactive) | > 100 µM (inactive) | > 100 µM (inactive) | > 100 | > 100 µM (inactive) | > 100 µM (inactive) | 42.6 µM (inactive) | > 100 µM (inactive) | 54.1 µM (inactive)
CC1=C(C)CC2(CCCCC2=O)[S+]([O-])C1 (centres undefined) | > 100 µM (inactive) | > 100 µM (inactive) | > 100 µM (inactive) | > 100 µM (inactive) | > 100 µM (inactive) | > 100 µM (inactive) | > 100 µM (inactive) | > 100 µM (inactive) | > 100 µM (inactive) | > 100 µM (inactive) | > 100 µM (inactive) | > 100 µM (inactive) | > 100 | > 100 µM (inactive) | > 100 µM (inactive) |  | > 100 µM (inactive) | > 100 µM (inactive)
COc1cc(/C=C(\C#N)c2ccccc2)cc(OC)c1 | 74.1 µM (inactive) | > 100 µM (inactive) | 35.6 µM (inactive) | 22.1 µM (inactive) | 42.6 µM (inactive) | 32.4 µM (inactive) | 50 µM (inactive) | 26.1 µM (inactive) | 71 µM (inactive) | 16.4 µM (inactive) | 49.5 µM (inactive) |  | 24 | 25.8 µM (inactive) | 34.8 µM (inactive) | 32.4 µM (inactive) | 41.1 µM (inactive) | > 100 µM (inactive)
CS/C(c1ccccc1)=[N+](/C)[O-] | > 100 µM (inactive) | > 100 µM (inactive) | > 56.2 µM (inactive) | > 43.3 µM (inactive) | > 52.2 µM (inactive) | > 75.9 µM (inactive) | > 100 µM (inactive) | > 100 µM (inactive) | > 100 µM (inactive) | > 100 µM (inactive) | > 80 µM (inactive) | > 100 µM (inactive) | 18.1 |  | > 100 µM (inactive) | > 100 µM (inactive) | > 100 µM (inactive) | > 100 µM (inactive)
CCOC(=O)N1C2C=C(C)C(C3C(C)C(=O)N31)N(C(=O)c1ccccc1)O2 (centres undefined) | > 100 µM (inactive) | > 100 µM (inactive) | > 100 µM (inactive) | > 100 µM (inactive) | > 100 µM (inactive) | > 100 µM (inactive) | > 100 µM (inactive) | > 100 µM (inactive) | > 100 µM (inactive) | > 100 µM (inactive) | > 100 µM (inactive) | > 100 µM (inactive) | > 100 | > 100 µM (inactive) | > 100 µM (inactive) |  | > 100 µM (inactive) | > 100 µM (inactive)
C/C(CC(=O)Nc1ccc(NC(=O)/C(C)=N/NS(=O)(=O)c2ccc(C)cc2)cc1)=N\NS(=O)(=O)c1ccc(C)cc1 | > 100 µM (inactive) | > 100 µM (inactive) | > 100 µM (inactive) | > 100 µM (inactive) | > 100 µM (inactive) | > 100 µM (inactive) | > 100 µM (inactive) | > 100 µM (inactive) | > 100 µM (inactive) | > 100 µM (inactive) | > 100 µM (inactive) | > 100 µM (inactive) | > 100 | > 100 µM (inactive) | > 100 µM (inactive) |  | > 100 µM (inactive) | 
C[C@H]1CC[P+](C)(c2ccccc2)C1 (some centres undefined) | > 100 µM (inactive) | > 100 µM (inactive) | > 100 µM (inactive) | > 100 µM (inactive) | > 100 µM (inactive) | > 100 µM (inactive) | > 100 µM (inactive) | > 100 µM (inactive) | > 100 µM (inactive) | > 100 µM (inactive) | > 100 µM (inactive) | > 100 µM (inactive) | > 100 | > 100 µM (inactive) | > 100 µM (inactive) | > 100 µM (inactive) | > 100 µM (inactive) | 
Brc1cc2c(cc1Br)CN(c1ccccc1)C2 | > 100 µM (inactive) | > 100 µM (inactive) | > 100 µM (inactive) | > 100 µM (inactive) | > 100 µM (inactive) | > 100 µM (inactive) | > 100 µM (inactive) | > 100 µM (inactive) | > 100 µM (inactive) | > 100 µM (inactive) | > 100 µM (inactive) | 99.8 µM (inactive) | 53.8 | > 100 µM (inactive) | > 100 µM (inactive) |  | > 100 µM (inactive) | > 100 µM (inactive)
NC(CNc1ccc(O)cc1)C(=O)O (centres undefined) | > 100 µM (inactive) | > 100 µM (inactive) | > 100 µM (inactive) | 60.8 µM (inactive) | > 100 µM (inactive) | > 100 µM (inactive) | 28.8 µM (inactive) | > 100 µM (inactive) |  | > 100 µM (inactive) | > 100 µM (inactive) | > 100 µM (inactive) | > 100 | > 100 µM (inactive) | > 100 µM (inactive) | > 100 µM (inactive) | > 100 µM (inactive) | 17.4 µM (inactive)
COC(=O)Cc1nc2ccccc2o1 | > 100 µM (inactive) | > 100 µM (inactive) | 17.8 µM (inactive) |  | 80.5 µM (inactive) | 90.8 µM (inactive) | 30.5 µM (inactive) | > 100 µM (inactive) | > 100 µM (inactive) | 67.9 µM (inactive) | 91.2 µM (inactive) | > 100 µM (inactive) | 33.3 | > 100 µM (inactive) | 66.5 µM (inactive) | 40.1 µM (inactive) | 50.8 µM (inactive) | > 100 µM (inactive)
CCc1nc2c([nH]1)C(=O)c1ccccc1C2=O | > 100 µM (inactive) | 24.8 µM (inactive) |  |  | 43 µM (inactive) | 43.2 µM (inactive) | 15.3 µM (inactive) | > 100 µM (inactive) |  | 46.3 µM (inactive) | 27.2 µM (inactive) | > 100 µM (inactive) | 51.3 | 34 µM (inactive) | 59.7 µM (inactive) | 33.5 µM (inactive) |  | 58.7 µM (inactive)
Cc1ccc(Nc2cccc3c2C(=O)c2cccc(Nc4ccc(C)cc4S(=O)(=O)O)c2C3=O)c(S(=O)(=O)O)c1 | > 100 µM (inactive) | > 100 µM (inactive) | > 100 µM (inactive) |  | > 100 µM (inactive) |  | > 100 µM (inactive) | > 100 µM (inactive) | > 100 µM (inactive) | > 100 µM (inactive) | > 100 µM (inactive) | > 100 µM (inactive) | > 100 | > 100 µM (inactive) | > 100 µM (inactive) | > 100 µM (inactive) | > 100 µM (inactive) | > 100 µM (inactive)
c1ccc(C2OC3(CCC[C@H]4C[C@H]43)O[C@H]2c2ccccc2)cc1 (some centres undefined) | 56.1 µM (inactive) | 34.5 µM (inactive) | 40.3 µM (inactive) | 24.2 µM (inactive) | 39.8 µM (inactive) | 31.3 µM (inactive) | 32.2 µM (inactive) |  | > 100 µM (inactive) | 25.8 µM (inactive) | 31.8 µM (inactive) | 38.5 µM (inactive) | 33.8 | 26.2 µM (inactive) | 29 µM (inactive) | 22.7 µM (inactive) | 25.3 µM (inactive) | 53.2 µM (inactive)
CC1C=CC(O)[C@]2(CO)CC3(CCC12)OCCO3 (some centres undefined) | > 100 µM (inactive) | > 100 µM (inactive) |  |  | > 100 µM (inactive) | > 100 µM (inactive) | > 100 µM (inactive) | > 100 µM (inactive) | > 100 µM (inactive) | > 100 µM (inactive) | > 100 µM (inactive) | > 100 µM (inactive) |  | > 100 µM (inactive) | > 100 µM (inactive) | > 100 µM (inactive) | > 100 µM (inactive) | > 100 µM (inactive)
